This note sets out measurements from patent publication US20110319396A1, “BENZODIAZEPIN-2-ON DERIVATIVES” (MSD K.K., priority 2009, published 2011).

This assay deals with T1, Human DGAT1 (Homo sapiens, UniProt O75907).
T1 construct: made in house; host or cells: Pichia pastoris (printed 'Pichia pastris'), vector pPICZA, membrane fraction
T1 sequence (O75907 1-488): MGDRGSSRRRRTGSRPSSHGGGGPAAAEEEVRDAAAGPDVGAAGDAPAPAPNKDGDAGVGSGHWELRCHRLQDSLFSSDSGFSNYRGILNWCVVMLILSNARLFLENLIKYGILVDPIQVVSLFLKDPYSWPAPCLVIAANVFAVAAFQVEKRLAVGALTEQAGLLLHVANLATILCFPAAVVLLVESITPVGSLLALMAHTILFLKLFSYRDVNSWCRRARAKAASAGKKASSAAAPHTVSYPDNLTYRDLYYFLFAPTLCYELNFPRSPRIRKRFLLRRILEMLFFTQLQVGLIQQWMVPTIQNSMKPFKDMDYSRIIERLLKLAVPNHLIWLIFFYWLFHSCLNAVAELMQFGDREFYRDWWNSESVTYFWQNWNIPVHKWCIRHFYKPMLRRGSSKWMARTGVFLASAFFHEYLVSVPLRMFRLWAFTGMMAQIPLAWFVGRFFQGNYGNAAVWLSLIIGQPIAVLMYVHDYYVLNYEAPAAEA
The experiment in a line: DGAT1 Inhibitory Activity Test. The assay is classed as biochemical. To be noted: DGAT1-expressed yeast membrane fraction as enzyme source; 40 μM Dioelin, 15 μM [14C]-oleoyl-CoA; room temperature for 30 minutes. As for the experimental part: Human DGAT1 genes were amplified by PCR using primers described below from human cDNA library (Clontech).
The amplified human DGAT1 genes were introduced into a yeast expression vector pPICZA (Invitrogen). The resultant expression plasmid was introduced into an yeast (Pichia pastris) by electroporation to produce a recombinant yeast. The recombinant yeast was cultured in the presence of 0.5% methanol for 72 hours, and the cells were crushed using glass beads in 10 mM Tris pH 7.5, 250 mM sucrose and 1 mM EDTA, followed by adjusting the membrane fraction by centrifugation to use the adjusted membrane fraction as an enzyme source.
To the reaction liquid having the following composition: 100 mM Tris pH 7.5, 100 mM MgCl2, 100 mM sucrose, 40 μM Dioelin, 15 μM [^14C]-oleoyl-CoA, 0.25 μg of test substance, DGAT1-expressed yeast membrane fraction, was added, and the mixture having a volume of 100 μl was incubated at room temperature for 30 minutes. To the reaction liquid, 100 μl of 2-propanol/heptan/H2O (80/20/2) was added, the mixture was stirred well, followed by adding 200 of heptane and further stirring the mixture. After centrifugation, the heptane layer was collected, ethanol/0.1N NaOH/H2O (50:5:45) was added, the mixture was thus stirred, followed by recentrifuging the mixture and collecting the heptane layer. After exsiccation of the resultant heptane layer, 100 μl of Microscint 0 (PerkinElmer) was added, and the radioactivity was measured with a liquid scintillation counter. The inhibitory activity was calculated from the following formula:
Inhibition rate=100−(radioactivity in case of addition of test compound−background)/(radioactivity in case of addition of no test compound−background)×100
wherein the background means the radioactivity in case of addition of no membrane fraction.
By IC50 is commonly meant the midpoint of a concentration-inhibition curve. As for `CN1C(=O)[C@H](NC(=O)C2(NC(=O)c3ccccc3)CC2)CN(Cc2cc(C(F)(F)F)cc(C(F)(F)F)c2)c2ccccc21` [Example 64, N-{1-[({(3R)-5-[3,5-bis(trifluoromethyl)benzyl]-1-methyl-2-oxo-2,3,4,5-tetrahydro-1H-1,5-benzodiazepin-3-yl}amino)carbonyl]cyclopropyl}benzamide], the midpoint of inhibition, the IC50, lay at 47.3 nM.

As to `CN1C(=O)[C@H](NC(=O)C(C)(C)NC(=O)NC(C)(C)C)CN(c2cc(Cl)cc(Cl)c2)c2ccc(F)cc21` [Example 47, N^2-[(tert-butylamino)carbonyl]-N-[(3R)-5-(3,5-dichlorophenyl)-8-fluoro-1-methyl-2-oxo-2,3,4,5-tetrahydro-1H-1,5-benzodiazepin-3-yl]-2-methylalanineamide], the IC50 was found to be 61.3 nM.

Regarding `CN1C(=O)[C@H](NC(=O)C(C)(C)NC(=O)N2CCCCC2)CN(c2ccc(OC(F)(F)F)cc2)c2ccc(F)cc21` [Example 52, N-[2-({(3R)-8-fluoro-1-methyl-2-oxo-5-[4-(trifluoromethoxy)phenyl]-2,3,4,5-tetrahydro-1H-1,5-benzodiazepin-3-yl}amino)-1,1-dimethyl-2-oxoethyl]piperidin-1-carboxyamide], the IC50 is 91.1 nM.

“N-[2-({(3R)-5-[3,5-bis(trifluoromethyl)phenyl]-8-fluoro-1-methyl-2-oxo-2,3,4,5-tetrahydro-1H-1,5-benzodiazepin-3-yl}amino)-1,1-dimethyl-2-oxoethyl]-5-fluoropyridine-2-carboxyamide [Example 19]” yielded an IC50 of 24.1 nM.

With `Cc1cnc(C(=O)NC(C)(C)C(=O)N[C@@H]2CN(Cc3ccc(OC(F)(F)F)cc3)c3ccc(F)cc3N(C)C2=O)cn1` [Example 98, N-[2-({(3R)-8-fluoro-1-methyl-2-oxo-5-[4-(trifluoromethoxy)benzyl]-2,3,4,5-tetrahydro-1H-1,5-benzodiazepin-3-yl}amino)-1,1-dimethyl-2-oxoethyl]-5-methylpyrazin-2-carboxyamide], the IC50 was determined as 1340 nM.

As to “N-(2-{[(3R)-5-(3,5-dichlorophenyl)-8-fluoro-1-methyl-2-oxo-2,3,4,5-tetrahydro-1H-1,5-benzodiazepin-3-yl]amino}-1,1-dimethyl-2-oxoethyl)-1,3-thiazol-2-carboxyamide [Example 45]”, the IC50 was 29.2 nM.

`CN1C(=O)[C@H](NC(=O)C2(NC(=O)OC(C)(C)C)CC2)CN(Cc2ccc(OC(F)(F)F)cc2)c2ccccc21` [Example 92, tert-butyl {1-[({(3R)-1-methyl-2-oxo-5-[4-(trifluoromethoxy)benzyl]-2,3,4,5-tetrahydro-1H-1,5-benzodiazepin-3-yl}amino)carbonyl]cyclopropyl}carbamate] showed a 50% inhibitory concentration (IC50) of 20.8 nM.

`CN1C(=O)[C@H](NC(=O)C(C)(C)NC(=O)c2ccc(F)cc2)CN(Cc2ccc(F)c(C(F)(F)F)c2)c2ccc(F)cc21` [Example 84, 4-fluoro-N-[2-({(3R)-8-fluoro-5-[4-fluoro-3-(trifluoromethyl)benzyl]-1-methyl-2-oxo-2,3,4,5-tetrahydro-1H-1,5-benzodiazepin-3-yl}amino)-1,1-dimethyl-2-oxoethyl]benzamide] had an IC50 of 140 nM.

`CN1C(=O)[C@H](NC(=O)C(C)(C)NC(=O)C2(C(F)(F)F)CC2)CN(c2cc(C(F)(F)F)cc(C(F)(F)F)c2)c2ccc(F)cc21` [Example 27, N-{(3R)-5-[3,5-bis(trifluoromethyl)phenyl]-8-fluoro-1-methyl-2-oxo-2,3,4,5-tetrahydro-1H-1,5-benzodiazepin-3-yl}-2-methyl-N^2-{[1-(trifluoromethyl)cyclopropyl]carbonyl}alaninamide] had an IC50 of 16.3 nM.

For `CN1C(=O)[C@H](NC(=O)C(C)(C)NC(=O)c2ccc(F)cc2)CN(c2cc(Cl)cc(Cl)c2)c2cc(F)ccc21` [Example 59, N-(2-{[(3R)-5-(3,5-dichlorophenyl)-7-fluoro-1-methyl-2-oxo-2,3,4,5-tetrahydro-1H-1,5-benzodiazepin-3-yl]amino}-1,1-dimethyl-2-oxoethyl)-4-fluorobenzamide], the IC50 was 40.2 nM.

The compound `CN1C(=O)[C@H](NC(=O)C2(NC(=O)c3ccccc3)CC2)CN(c2ccc(OC(F)(F)F)cc2)c2ccc(F)cc21` [Example 12, N-{1-[({(3R)-8-fluoro-1-methyl-2-oxo-5-[4-(trifluoromethoxy)phenyl]-2,3,4,5-tetrahydro-1H-1,5-benzodiazepin-3-yl}amino)carbonyl]cyclopropyl}benzamide] returned an IC50 of 192 nM.

`CN1C(=O)[C@H](NC(=O)C(C)(C)NC(=O)c2ccc(F)cc2)CN(c2ccc(OC(F)(F)F)cc2)c2ccc(F)cc21` [Example 1, 4-fluoro-N-[2-({(3R)-8-fluoro-1-methyl-2-oxo-5-[4-(trifluoromethoxy)phenyl]-2,3,4,5-tetrahydro-1H-1,5-benzodiazepin-3-yl}amino)-1,1-dimethyl-2-oxoethyl]benzamide] had an IC50 of 166 nM.

`CN1C(=O)[C@H](NC(=O)C(C)(C)NC(=O)c2ncco2)CN(Cc2ccc(OC(F)(F)F)cc2)c2ccc(F)cc21` [Example 100, N-[2-({(3R)-8-fluoro-1-methyl-2-oxo-5-[4-(trifluoromethoxy)benzyl]-2,3,4,5-tetrahydro-1H-1,5-benzodiazepin-3-yl}amino)-1,1-dimethyl-2-oxoethyl]-1,3-oxazol-2-carboxyamide] showed an IC50 of 2230 nM.
